Experimental data as given in patent US11345711B2, “8,9-dihydroimidazo[1,2-a]pyrimido[5,4-e]pyrimidin-5(6H)-ones” (IMPACT THERAPEUTICS (SHANGHAI), INC, priority 2016, dated 2022).
Read-outs that look alike come from different tables or passages of the source.

Key:
Wee1 (h) = Wee1 (h) (Homo sapiens, UniProt P30291); test: Wee1 kinase (h) detection method, [γ-33P]-ATP filter assay; format: biochemical
LoVo cells = test: MTT based cell viability assay on LoVo cells; conditions: for IC50: Homo sapiens, LoVo, 72 h, 3 d, read-out: IC50, growth inhibition of LoVo cells
In short: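 Inhibition of LoVo proliferation was derived as IC50 from a sigmoidal dose-response fit of cell survival. Readout was MTT (0.5 mg/mL, 4 h) with absorbance at 552/630/690 nm, after 3-day treatment at 37 °C. Eight-point series from 10 μM to 0.01 μM, DMSO control, 1% DMSO final.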

NCI-H1299 cells = test: MTT based cell viability assay on NCI-H1299 cells; conditions: for IC50: Homo sapiens, read-out: IC50, growth inhibition of NCI-H1299 cells
In short: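 Viability read-out was MTT reduction (0.5 mg/mL, 4 h, absorbance 552/630/690 nm) after 3-day compound exposure at 37 °C of NCI-H1299 cells seeded at 1000 per well. Dilutions spanned 10 μM–0.01 μM in DMSO, final DMSO 1‰. Survival-versus-concentration curves were fitted sigmoidally to give IC50.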

Wee1 (h), sequence (P30291 whole entry): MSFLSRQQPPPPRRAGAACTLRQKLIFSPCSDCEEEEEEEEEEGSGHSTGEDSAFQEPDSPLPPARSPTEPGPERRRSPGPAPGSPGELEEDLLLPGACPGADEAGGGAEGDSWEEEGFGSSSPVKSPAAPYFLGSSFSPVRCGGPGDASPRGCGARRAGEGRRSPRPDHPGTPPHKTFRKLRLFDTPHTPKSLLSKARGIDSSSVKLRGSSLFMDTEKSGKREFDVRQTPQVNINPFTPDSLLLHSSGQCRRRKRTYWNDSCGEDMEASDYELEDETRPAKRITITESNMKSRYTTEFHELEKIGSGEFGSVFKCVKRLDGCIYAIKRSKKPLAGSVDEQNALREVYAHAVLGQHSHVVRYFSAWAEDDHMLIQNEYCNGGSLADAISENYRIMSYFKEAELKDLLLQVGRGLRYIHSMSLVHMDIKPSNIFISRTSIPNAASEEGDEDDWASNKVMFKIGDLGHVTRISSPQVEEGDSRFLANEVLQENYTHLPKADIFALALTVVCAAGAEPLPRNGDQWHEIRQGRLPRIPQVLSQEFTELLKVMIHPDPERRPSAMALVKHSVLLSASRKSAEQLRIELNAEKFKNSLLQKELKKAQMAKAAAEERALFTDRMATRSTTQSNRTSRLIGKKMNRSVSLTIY

| SMILES | Inh. (%) of Wee1 kinase enzyme activity (Wee1 (h); C 0.01 μm compound) | Inh. (%) of Wee1 kinase enzyme activity (Wee1 (h); C 0.1 μm compound) | Inh. (%) of Wee1 kinase enzyme activity (Wee1 (h); C 1 μm compound) | IC50 (LoVo cells) | IC50 (NCI-H1299 cells; NCI-H1299 cells) | IC50 (NCI-H1299 cells; NCI-H1299, NCI-H1299 cells) | inhibitory effect on the growth of LoVo cells compared with AZD1775 (LoVo cells) | inhibitory effect on the growth of NCI-H1299 cells compared with AZD1775 (NCI-H1299 cells) |
| --- | --- | --- | --- | --- | --- | --- | --- | --- |
| CN1CCn2nc(Nc3ncc4c(n3)N3CCN=C3N(c3c(Cl)cccc3Cl)C4=O)cc2C1 [Example 79, 6-(2,6-Dichlorophenyl)-2-((5-methyl-4,5,6,7-tetrahydropyrazolo[1,5-a]pyrazin-2-yl)amino)-8,9-dihydroimidazo[1,2-a]pyrimido[5,4-e]pyrimidin-5(6H)-one] | – | – | 69% | > 100000 nM | > 10000 nM | – | – | – |
| Cc1cccc(C)c1N1C(=O)c2cnc(Nc3ccc(N4CCN(C)CC4)cc3)nc2N2CCN=C21 [Example 83, 6-(2,6-Dimethylphenyl)-2-((4-(4-methylpiperazin-1-yl)phenyl)amino)-8,9-dihydroimidazo[1,2-a]pyrimido[5,4-e]pyrimidin-5(6H)-one] | 15% | 59% | 94% | 2900 nM | 1440 nM | – | – | – |
| Cc1cccc(C)c1N1C(=O)c2cnc(Nc3ccc(N4C[C@@H](C)N(C)[C@@H](C)C4)cc3)nc2N2CCN=C21 [Example 84, 6-(2,6-Dimethylphenyl)-2-((4-((3S,5R)-3,4,5-trimethylpiperazin-1-yl)phenyl)amino)-8,9-dihydroimidazo[1,2-a]pyrimido[5,4-e]pyrimidin-5(6H)-one] | 18% | 49% | 93% | 3060 nM | 836 nM | – | – | – |
| CN1CCN(c2ccc(Nc3ncc4c(n3)N3CCN=C3N(c3ccc(Cl)cc3)C4=O)cc2)CC1 [Example 85, 6-(4-Chlorophenyl)-2-((4-(4-methylpiperazin-1-yl)phenyl)amino)-8,9-dihydroimidazo[1,2-a]pyrimido[5,4-e]pyrimidin-5(6H)-one] | – | – | 17% | > 100000 nM | > 10000 nM | – | – | – |
| CN1CCN(c2ccc(Nc3ncc4c(n3)N3CCN=C3N(c3cccc(Cl)c3)C4=O)cc2)CC1 [Example 86, 6-(3-Chlorophenyl)-2-((4-(4-methylpiperazin-1-yl)phenyl)amino)-8,9-dihydroimidazo[1,2-a]pyrimido[5,4-e]pyrimidin-5(6H)-one] | – | – | 13% | > 100000 nM | > 10000 nM | – | – | – |
| CN1CCN(c2ccc(Nc3ncc4c(n3)N3CCN=C3N(c3ccc(Cl)cc3Cl)C4=O)cc2)CC1 [Example 87, 6-(2,4-Dichlorophenyl)-2-((4-(4-methylpiperazin-1-yl)phenyl)amino)-8,9-dihydroimidazo[1,2-a]pyrimido[5,4-e]pyrimidin-5(6H)-one] | – | – | 75% | > 100000 nM | > 10000 nM | – | – | – |
| CN1CCN(c2ccc(Nc3ncc4c(n3)N3CCN=C3N(c3ccc(F)cc3Cl)C4=O)cc2)CC1 [Example 88, 6-(2-Chloro-4-fluorophenyl)-2-((4-(4-methylpiperazin-1-yl)phenyl)amino)-8,9-dihydroimidazo[1,2-a]pyrimido[5,4-e]pyrimidin-5(6H)-one] | – | – | 75% | > 100000 nM | > 3000 nM | – | – | – |
| CN1CCN(c2ccc(Nc3ncc4c(n3)N3CCN=C3N(c3cc(Cl)ccc3Cl)C4=O)cc2)CC1 [Example 90, 6-(2,5-Dichlorophenyl)-2-((4-(4-methylpiperazin-1-yl)phenyl)amino)-8,9-dihydroimidazo[1,2-a]pyrimido[5,4-e]pyrimidin-5(6H)-one] | – | – | 29% | 1310 nM | > 10000 nM | – | – | – |

Compounds with a lower IC50 (LoVo cells), results first:

| Inh. (%) of Wee1 kinase enzyme activity (Wee1 (h); C 0.01 μm compound) | Inh. (%) of Wee1 kinase enzyme activity (Wee1 (h); C 0.1 μm compound) | Inh. (%) of Wee1 kinase enzyme activity (Wee1 (h); C 1 μm compound) | IC50 (LoVo cells) | IC50 (NCI-H1299 cells; NCI-H1299 cells) | IC50 (NCI-H1299 cells; NCI-H1299, NCI-H1299 cells) | SMILES | inhibitory effect on the growth of LoVo cells compared with AZD1775 (LoVo cells) | inhibitory effect on the growth of NCI-H1299 cells compared with AZD1775 (NCI-H1299 cells) |
| --- | --- | --- | --- | --- | --- | --- | --- | --- |
| – | – | 83% | 946 nM | 1200 nM | – | COc1cccc(Cl)c1N1C(=O)c2cnc(Nc3ccc(N4CCN(C)CC4)c(C)c3)nc2N2CCN=C21 [Example 82, 6-(2-Chloro-6-methoxyphenyl)-2-((3-methyl-4-(4-methylpiperazin-1-yl)phenyl)amino)-8,9-dihydroimidazo[1,2-a]pyrimido[5,4-e]pyrimidin-5(6H)-one] | – | – |
| – | – | 80% | 539 nM | – | 978 nM | Cc1cc(Nc2ncc3c(n2)N2CCN=C2N(c2c(Cl)cccc2C(F)(F)F)C3=O)ccc1N1CCN(C)CC1 [Example 80, 6-(2-Chloro-6-(trifluoromethyl)phenyl)-2-((3-methyl-4-(4-methylpiperazin-1-yl)phenyl)amino)-8,9-dihydroimidazo[1,2-a]pyrimido[5,4-e]pyrimidin-5(6H)-one] | – | – |
| – | – | 89% | 220 nM | 957 nM | – | CN1CCN(c2ccc(Nc3ncc4c(n3)N3CCN=C3N(c3cccc(F)c3Cl)C4=O)cc2)CC1 [Example 89, 6-(2-Chloro-3-fluorophenyl)-2-((4-(4-methylpiperazin-1-yl)phenyl)amino)-8,9-dihydroimidazo[1,2-a]pyrimido[5,4-e]pyrimidin-5(6H)-one] | – | – |
| – | – | 83% | 194 nM | – | 1430 nM | CN1CCN(c2ccc(Nc3ncc4c(n3)N3CCN=C3N(c3c(Cl)cccc3Cl)C4=O)cc2C(F)(F)F)CC1 [Example 73, 6-(2,6-Dichlorophenyl)-2-((4-(4-methylpiperazin-1-yl)-3-(trifluoromethyl)phenyl)amino)-8,9-dihydroimidazo[1,2-a]pyrimido[5,4-e]pyrimidin-5(6H)-one] | – | – |
| 15% | 61% | 98% | 182 nM | – | 708 nM | C[C@@H]1CN(c2ccc(Nc3ncc4c(n3)N3CCN=C3N(c3c(Cl)cccc3Cl)C4=O)cc2C(F)(F)F)C[C@H](C)N1C [Example 74, 6-(2,6-Dichlorophenyl)-2-((3-trifluoromethyl-4-((3S,5R)-3,4,5-trimethylpiperazin-1-yl)phenyl)amino)-8,9-dihydroimidazo[1,2-a]pyrimido[5,4-e]pyrimidin-5(6H)-one] | – | – |
| 7% | 72% | 89% | 135 nM | – | 310 nM | Cc1cc(Nc2ncc3c(n2)N2CCN=C2N(c2c(C)cccc2Cl)C3=O)ccc1N1CCN(C)CC1 [Example 81, 6-(2-Chloro-6-methylphenyl)-2-((3-methyl-4-(4-methylpiperazin-1-yl)phenyl)amino)-8,9-dihydroimidazo[1,2-a]pyrimido[5,4-e]pyrimidin-5(6H)-one] | – | – |
| 22% | 75% | 97% | 59.2 nM | 328 nM | – | C[C@@H]1CN(c2ccc(Nc3ncc4c(n3)N3CCN=C3N(c3c(Cl)cccc3Cl)C4=O)cc2Cl)C[C@H](C)N1C [Example 72, 6-(2,6-Dichlorophenyl)-2-((3-chloro-4-((3S,5R)-3,4,5-trimethylpiperazin-1-yl)phenyl)amino)-8,9-dihydroimidazo[1,2-a]pyrimido[5,4-e]pyrimidin-5(6H)-one] | – | – |
| 11% | 86% | 88% | 52.4 nM | – | 217 nM | Cc1cc(Nc2ncc3c(n2)N2CCN=C2N(c2c(Cl)cccc2Cl)C3=O)ccc1N1C[C@@H](C)N(C)[C@@H](C)C1 [Example 77, 6-(2,6-Dichlorophenyl)-2-((3-methyl-4-((3S,5R)-3,4,5-trimethylpiperazin-1-yl)phenyl)amino)-8,9-dihydroimidazo[1,2-a]pyrimido[5,4-e]pyrimidin-5(6H)-one] | – | – |
| 22% | 74% | 97% | 48.8 nM | – | 198 nM | Cc1cc(Nc2ncc3c(n2)N2CCN=C2N(c2c(Cl)cccc2Cl)C3=O)ccc1N1CCN(C(C)C)CC1 [Example 76, 6-(2,6-Dichlorophenyl)-2-((4-(4-isopropylpiperazin-1-yl)-3-methylphenyl)amino)-8,9-dihydroimidazo[1,2-a]pyrimido[5,4-e]pyrimidin-5(6H)-one] | – | – |
| 29% | 77% | 100% | 41.4 nM | – | 149 nM | Cc1cc(Nc2ncc3c(n2)N2CCN=C2N(c2c(Cl)cccc2Cl)C3=O)ccc1N1C[C@@H](C)N(C(C)C)[C@@H](C)C1 [Example 78, 6-(2,6-Dichlorophenyl)-2-((4-((3S,5R)-4-isopropyl-3,5-dimethylpiperazin-1-yl)-3-methylphenyl)amino)-8,9-dihydroimidazo[1,2-a]pyrimido[5,4-e]pyrimidin-5(6H)-one] | – | – |
| 24% | 80% | 100% | 40.2 nM | – | 161 nM | Cc1cc(Nc2ncc3c(n2)N2CCN=C2N(c2c(Cl)cccc2Cl)C3=O)ccc1N1CCN(C)CC1 [Example 75, 6-(2,6-Dichlorophenyl)-2-((3-methyl-4-(4-methylpiperazin-1-yl)phenyl)amino)-8,9-dihydroimidazo[1,2-a]pyrimido[5,4-e]pyrimidin-5(6H)-one] | stronger inhibitory effect on the growth of LoVo cells than AZD1775 | stronger inhibitory effect on the growth of NCI-H1299 cells than AZD1775 |
